# Tests used:
# [1] = Group A patients
# [2] = system: EBV subset ME/CFS patients; assay: Energy Index Point Score (EIPS) of six EBV subset ME/CFS patients treated with valacyclovir for over 12 months; assay type: in vivo, human
# Excerpt: FIG. 2A is a table depicting the clinical results that establish EBV Abortive Lytic replication in the first of six EBV subset ME/CFS patients treated with valacyclovir for over 12 months;
# As depicted in FIG. 1, the Energy Index (EI) point score (Copyright, Lerner AM and Deeter R G, 1999), is a simple and reliable metric that can be used to easily evaluate the functional capacity of the CFS patient at each patient-physician visit. *The CFS Energy Index point score can also be determined by questionnaire (US copyright, 1999 Lerner A. M., Deeter, R. J) reproduced with permission. **Kcal per day is calculated for a 70 kg CFS patient. The EI is measured on a scale of 1-10. Validation of the EI was done using two methods: 1.) 20 CFS patients and 22 healthy adults, matched for sex, age, place, and time; EI, CFS=3.6; EI, healthy adults=9.9, p=<0.0001; and 2.) 55 CFS patients evaluated at the same time by the EI and fatigue severity score, correlation 0.67, p=0.0066. Improvement to disappearance of CFS symptoms correlates with an increasing EI.
# The validated energy index point score generally can be calculated for each CFS patient every 3 months at physician visits. […]
# Demographics. […] The EIPS is a validated (FSS-9 item scale with high degree of internal consistency measured by Cronbach's alpha) is a Functional Activity Appraisal: energy Index Score Healthcare worker Appraisal.
# [3] = system: Group A ME/CFS patients (EBV, HCMV, HHV6 subsets); assay: Systematic review 2001-2007 of Group A ME/CFS patients given subset-directed antiviral treatment; assay type: in vivo, human; settings: 79 of 106 group A patients, pooled valacyclovir (EBV subset) or valganciclovir (HCMV, HHV6 subsets); p<0.0001
# Excerpt: A ME/CFS diagnostic panel was created utilizing initial Fukuda/Carruthers criteria and a systematic review of 142 ME/CFS patients. Two groups of ME/CFS patients were found. Group A patients had elevated serum IgG antibody titers to the herpes viruses Epstein-Barr virus (EBV), cytomegalovirus (HCMV) and Human Herpes virus 6 (HHV6) in single or multiple virus infection, but no other co-infections. Group B patients had similar elevated herpes virus antibody titers, plus serologic evidence of co-infections, tick-borne (“Borrelia burgdorferi”, “Anaplasma phagocytophilia”, “Babesia microti”); “Mycoplasma pneumoniae”; or adult rheumatoid fever. One hundred and six group A ME/CFS patients were followed from 2001-2007, and treated with subset directed valacyclovir EBV subset or valganciclovir (HCMV, HHV6 subsets). The data included over 7000 patient visits and 35,000 data entries.
# SEID patients = assay: Reviews of antiviral therapy of EBV, CMV and HHV6 subset Group A SEID patients; assay type: in vivo, human; settings: cidofovir: unpublished studies
# Excerpt: These antiviral agents inhibit the respective DNA polymerases of the appropriate CMV, EBV, HHV6 herpesviruses.[8] […] Herpesvirus (EBV, CMV, HHV6) abortive lytic replication may be associated with SEID.
# EBV thymidine kinase = EBV thymidine kinase (Epstein-Barr virus, UniProt P03177); settings: after gastrointestinal absorption; cited from earlier work
# CFS patients = assay: Cidofovir treatment of CFS patients; assay type: in vivo, human
# Description: In general, to provide a therapeutically effective amount of the antiviral agent, a suitable effective dose will be in the range of 0.1 to 20 grams a day and preferably in the range between 0.3 to 15 grams per day, more preferably about 0.5 to 10 grams per day. The dosage of course, varies with the body weight of the patient up to a 70 kg individual, a dose of 4 grams per day may be appropriate (e.g., […] valacyclovir every six hours). The desired dose can be presented as two-four or more smaller doses administered at appropriate intervals throughout the day. These smaller doses may be administered in unit's dosage forms. For example, for valacyclovir and famciclovir, the dosage can be, for example 14 mg/kg every 6 hours (1.0 g every 6 hours for a 70 kg person). The dosage of valacyclovir and famciclovir can be, for example, up to or at least about 0.5-8 grams every 6 hours. The dosage of valgancyclovir can be, for example, from about 450-900 mg every 12 hours, or up to or at least about 100-2000 mg or more every 12 hours, depending on for example patient weight and tolerance. For maribavir the dosage can be, for example, for about 400-500 mg every 8 hours or for example up to or at least about 100-1000 or more every 8 hours. […] Accordingly, the dosage is adjusted to […] every two weeks. […]
# Chain of EBV thymidine kinase (P03177 whole entry): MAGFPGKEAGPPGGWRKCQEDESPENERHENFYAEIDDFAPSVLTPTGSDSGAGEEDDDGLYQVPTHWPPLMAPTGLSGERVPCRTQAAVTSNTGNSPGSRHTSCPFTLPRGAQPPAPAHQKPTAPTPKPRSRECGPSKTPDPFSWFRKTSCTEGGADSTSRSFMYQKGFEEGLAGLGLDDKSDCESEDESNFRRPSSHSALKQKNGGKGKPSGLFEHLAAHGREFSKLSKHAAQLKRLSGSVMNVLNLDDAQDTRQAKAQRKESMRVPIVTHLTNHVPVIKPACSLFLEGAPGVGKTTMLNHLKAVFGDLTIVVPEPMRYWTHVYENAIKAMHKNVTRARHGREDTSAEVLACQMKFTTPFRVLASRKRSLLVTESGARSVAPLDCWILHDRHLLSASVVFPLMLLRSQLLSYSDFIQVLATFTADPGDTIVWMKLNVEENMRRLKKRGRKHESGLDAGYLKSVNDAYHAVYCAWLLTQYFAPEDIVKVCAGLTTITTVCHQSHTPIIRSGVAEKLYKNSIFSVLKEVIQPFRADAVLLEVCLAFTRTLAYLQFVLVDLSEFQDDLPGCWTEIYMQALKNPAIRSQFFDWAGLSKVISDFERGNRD
smiles,measurement,setting,value
Nc1nc2c(ncn2COCCO)c(=O)[nH]1 [acylocivir],absorption,[1],typically not absorbed
CC(C)[C@H](N)C(=O)OCCOCn1cnc2c(=O)[nH]c(N)nc21 [valacyclovir],final EIPS values,"[2]; 5 group A ME/CFS patients, one year later, initial EIPS 3.5-5.0 (one patient 6)",7-8
same,final EIPS value,"[2]; single group B ME/CFS patient (Borrelia burgdorferi co-infection), baseline 3.5",5
same,Group A patients recovered to resume normal life,[3],74.5%
same,therapeutic result in SEID patients,SEID patients,salutary results
same,greater affinity for EBV thymidine kinase than for the host cellular enzyme,EBV thymidine kinase,200 ×
CC(C)[C@H](N)C(=O)OCC(CO)OCn1cnc2c(=O)nc(N)[nH]c21 (stereo partly drawn) [valganciclovir],Group A patients recovered to resume normal life,[3],74.5%
same,therapeutic result in SEID patients,SEID patients,salutary results
Nc1ccn(C[C@@H](CO)OCP(=O)(O)O)c(=O)n1 [cidofovir],therapeutic result in SEID patients,SEID patients,salutary results
same,effectiveness relative to other antiviral agents,CFS patients; administered intravenously,two to three time more effective
same,treatment time,"CFS patients; patients over 50 and/or CFS over 10 years, reduced from over one year",6-9 months
CC(=O)OCC(CCn1cnc2cnc(N)nc21)COC(C)=O [famciclovir],therapeutic result in SEID patients,SEID patients,salutary results

# — US20160258954A1, “METHOD OF DIAGNOSING AND TREATING EPSTEIN BARR VIRUS-BASED MYALGIC ENCEPHALOMYELITIS CHRONIC FATIGUE SYNDROME PATIENTS USING A SERUM ANTIBODY ASSAY” (CFS, LLC, priority 2015, published 2016)
